Laboratory results published in patent US11485742B2, “2-azaspiro[3.4]octane derivatives as M4 agonists” (NOVARTIS AG, priority 2019, dated 2022).

Tests used:
Assay type in all cases: cell-based
[1] = molecular target: T1, Cloned human M1 receptor (CHRM1) (Homo sapiens, UniProt P11229); test: CHRM1 Ca++ Flux Assay (HEK293 M1 cells, agonist mode); settings: for M1 FDSS PA % / Emax: Percent Activity (PA); for EC50: geometric mean if tested more than once, read-out: M1 FDSS EC50; for Emax: read-out: M1 FDSS PA %
T1 construct: expressed in transfected cells; host or cells: HEK293
T1 sequence (P11229 1-460): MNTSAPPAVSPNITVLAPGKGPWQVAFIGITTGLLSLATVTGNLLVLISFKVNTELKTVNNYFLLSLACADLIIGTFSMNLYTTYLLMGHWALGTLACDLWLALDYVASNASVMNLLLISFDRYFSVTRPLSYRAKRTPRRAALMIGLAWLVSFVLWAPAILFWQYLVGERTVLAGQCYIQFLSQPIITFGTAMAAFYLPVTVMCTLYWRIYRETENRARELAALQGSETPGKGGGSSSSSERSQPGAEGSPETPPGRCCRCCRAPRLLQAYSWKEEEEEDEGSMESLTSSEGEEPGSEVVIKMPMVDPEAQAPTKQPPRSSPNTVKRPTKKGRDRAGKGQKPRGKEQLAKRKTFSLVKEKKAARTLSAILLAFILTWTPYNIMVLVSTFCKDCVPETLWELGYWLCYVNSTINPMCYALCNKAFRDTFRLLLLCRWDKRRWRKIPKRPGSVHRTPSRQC
Method in brief: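 In agonist mode, compound-induced intracellular Ca++ mobilization was recorded for 3 min by fluorescent imager. The cells were HEK293 stably expressing cloned human CHRM1, in Ca/Mg-free HBSS with 20 mM HEPES. Triplicate 11-point dose-responses were fitted by four-parameter regression and normalized to the carbachol EC100 response.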

[2] = molecular target: T2, human cloned CHRM5 receptor (Homo sapiens, UniProt P08912); test: CHRM5 Ca++ Flux Assay (M5_CHO cells, agonist mode); settings: for M5 FDSS PA % / Emax: Percent Activity (PA) measured to EC100 of Carbachol; for EC50: agonist mode, geometric mean if tested more than once, read-out: M5 FDSS EC50; for Emax: read-out: M5 FDSS PA %
T2 construct: expressed in transfected cells; host or cells: CHO (M5_CHO)
T2 sequence (P08912 1-532): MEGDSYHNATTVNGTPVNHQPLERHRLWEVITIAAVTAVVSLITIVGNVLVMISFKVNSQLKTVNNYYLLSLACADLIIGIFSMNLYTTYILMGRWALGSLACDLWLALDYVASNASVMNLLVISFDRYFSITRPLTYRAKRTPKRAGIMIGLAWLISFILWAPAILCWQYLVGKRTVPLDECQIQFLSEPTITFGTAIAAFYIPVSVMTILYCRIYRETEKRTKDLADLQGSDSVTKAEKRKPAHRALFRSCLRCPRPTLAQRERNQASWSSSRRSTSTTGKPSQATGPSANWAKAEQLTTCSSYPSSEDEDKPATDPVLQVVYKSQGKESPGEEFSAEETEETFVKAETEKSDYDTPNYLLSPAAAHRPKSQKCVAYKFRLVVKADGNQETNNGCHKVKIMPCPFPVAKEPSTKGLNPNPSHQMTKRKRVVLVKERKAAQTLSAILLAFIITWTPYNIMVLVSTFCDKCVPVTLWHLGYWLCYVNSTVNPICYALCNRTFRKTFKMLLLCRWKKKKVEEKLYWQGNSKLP
Method in brief: (§1)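 Agonist-mode calcium mobilisation: compounds, 11 concentrations in triplicate, applied to stable M3_CHO or M5_CHO cells loaded with Ca++ dye, fluorescence followed 3 min. Efficacy expressed against carbachol EC100; EC curves by four-parameter nonlinear regression, geometric mean across independent runs.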

[3] = molecular target: T3, human cloned CHRM3 receptor (Homo sapiens, UniProt P20309); test: CHRM3 Ca++ Flux Assay (M3_CHO cells, agonist mode); settings: for M3 FDSS PA % / Emax: Percent Activity (PA) measured to EC100 of Carbachol; for EC50: agonist mode, geometric mean if tested more than once, read-out: M3 FDSS EC50; for Emax: read-out: M3 FDSS PA %
T3 construct: expressed in transfected cells; host or cells: CHO-K1 (M3_CHO)
Method in brief: as §1

T3 sequence (P20309 whole entry): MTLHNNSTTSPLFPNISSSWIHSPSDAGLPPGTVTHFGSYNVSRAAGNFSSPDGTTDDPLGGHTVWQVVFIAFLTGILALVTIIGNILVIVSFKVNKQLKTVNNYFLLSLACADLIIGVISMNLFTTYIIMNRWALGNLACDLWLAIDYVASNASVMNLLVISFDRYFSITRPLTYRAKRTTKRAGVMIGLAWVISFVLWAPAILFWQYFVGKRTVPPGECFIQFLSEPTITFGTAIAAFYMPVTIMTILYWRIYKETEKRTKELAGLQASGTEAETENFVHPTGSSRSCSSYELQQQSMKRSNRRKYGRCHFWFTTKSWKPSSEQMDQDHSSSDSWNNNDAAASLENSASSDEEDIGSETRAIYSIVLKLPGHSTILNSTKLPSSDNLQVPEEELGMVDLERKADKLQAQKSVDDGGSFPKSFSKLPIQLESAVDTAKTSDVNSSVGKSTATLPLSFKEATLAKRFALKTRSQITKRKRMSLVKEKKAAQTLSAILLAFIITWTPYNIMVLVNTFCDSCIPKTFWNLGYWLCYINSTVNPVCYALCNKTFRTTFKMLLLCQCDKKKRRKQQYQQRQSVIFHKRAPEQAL

| SMILES | EC50 [1] [nM] | EC50 [2] [µM] | EC50 [3] [µM] | Emax [1] [%] | Emax [2] [%] | Emax [3] [%] | M1 FDSS PA % [1] [%] | M5 FDSS PA % [2] [%] | M3 FDSS PA % [3] [%] |
| --- | --- | --- | --- | --- | --- | --- | --- | --- | --- |
| Fc1ccc(OC[C@H]2CCO2)c(C2CCN([C@@H]3COC4(C3)CN(c3nncs3)C4)CC2)c1.O=C(O)C(F)(F)F (single isomer, unassigned) [Example 2C, (S)-7-(4-(5-fluoro-2-(((R)-oxetan-2-yl)methoxy)phenyl)piperidin-1-yl)-2-(1,3,4-thiadiazol-2-yl)-5-oxa-2-azaspiro[3.4]octane trifluoroacetate or (S)-7-(4-(5-fluoro-2-(((S)-oxetan-2-yl)methoxy)phenyl)piperidin-1-yl)-2-(1,3,4-thiadiazol-2-yl)-5-oxa-2-azaspiro[3.4]octane trifluoroacetate] | 1150 | > 25 | > 25 | – | – | – | 75 | 0 | 0 |
| Fc1ccc(OC[C@H]2CCO2)c(C2CCN([C@@H]3COC4(C3)CN(c3nncs3)C4)CC2)c1.O=C(O)C(F)(F)F (single isomer, unassigned) [Example 2D, (S)-7-(4-(5-fluoro-2-(((R)-oxetan-2-yl)methoxy)phenyl)piperidin-1-yl)-2-(1,3,4-thiadiazol-2-yl)-5-oxa-2-azaspiro[3.4]octane trifluoroacetate or (S)-7-(4-(5-fluoro-2-(((S)-oxetan-2-yl)methoxy)phenyl)piperidin-1-yl)-2-(1,3,4-thiadiazol-2-yl)-5-oxa-2-azaspiro[3.4]octane trifluoroacetate] | 289 | > 25 | > 25 | – | – | – | 72 | 0 | 0 |
| Fc1ccc(O[C@@H]2CCOC2)c(C2CCN([C@@H]3COC4(C3)CN(c3nnco3)C4)CC2)c1 [Example 1D, (S)-7-(4-(5-fluoro-2-(((R)-tetrahydrofuran-3-yl)oxy)phenyl)piperidin-1-yl)-2-(1,3,4-oxadiazol-2-yl)-5-oxa-2-azaspiro[3.4]octane] | 609 | > 25 | > 25 | 69 | 0 | 0 | – | – | – |
| Fc1ccc(O[C@H]2CCCOC2)c(C2CCN([C@@H]3COC4(C3)CN(c3nnco3)C4)CC2)c1 (single isomer, unassigned) [Example 2R, (S)-7-(4-(5-fluoro-2-(((S)-tetrahydro-2H-pyran-3-yl)oxy)phenyl)piperidin-1-yl)-2-(1,3,4-oxadiazol-2-yl)-5-oxa-2-azaspiro[3.4]octane or (S)-7-(4-(5-fluoro-2-(((R)-tetrahydro-2H-pyran-3-yl)oxy)phenyl)piperidin-1-yl)-2-(1,3,4-oxadiazol-2-yl)-5-oxa-2-azaspiro[3.4]octane] | 848 | > 25 | > 25 | – | – | – | 56 | 0 | 0 |
| Fc1ccc([C@H]2CCOC2)c(C2CCN([C@@H]3COC4(C3)CN(c3nnco3)C4)CC2)c1 (single isomer, unassigned) [Example 3E, (S)-7-(4-(5-fluoro-2-((R)-tetrahydrofuran-3-yl)phenyl)piperidin-1-yl)-2-(1,3,4-oxadiazol-2-yl)-5-oxa-2-azaspiro[3.4]octane or (S)-7-(4-(5-fluoro-2-((S)-tetrahydrofuran-3-yl)phenyl)piperidin-1-yl)-2-(1,3,4-oxadiazol-2-yl)-5-oxa-2-azaspiro[3.4]octane] | 695 | > 25 | > 25 | – | – | – | 86 | 0 | 0 |
| C[C@H](Oc1ccc(F)cc1C1CCN([C@@H]2COC3(C2)CN(c2nnco2)C3)CC1)C1CCOCC1 (single isomer, unassigned) [Example 2Y, (S)-7-(4-(5-fluoro-2-((S)-1-(tetrahydro-2H-pyran-4-yl)ethoxy)phenyl)piperidin-1-yl)-2-(1,3,4-oxadiazol-2-yl)-5-oxa-2-azaspiro[3.4]octane or (S)-7-(4-(5-fluoro-2-((R)-1-(tetrahydro-2H-pyran-4-yl)ethoxy)phenyl)piperidin-1-yl)-2-(1,3,4-oxadiazol-2-yl)-5-oxa-2-azaspiro[3.4]octane] | 10800 | 9.46 | > 25 | – | – | – | 51 | 13 | 0 |

More lines, main results first:

| EC50 [1] [nM] | EC50 [2] [µM] | EC50 [3] [µM] | Emax [1] [%] | Emax [2] [%] | Emax [3] [%] | SMILES | M1 FDSS PA % [1] [%] | M5 FDSS PA % [2] [%] | M3 FDSS PA % [3] [%] |
| --- | --- | --- | --- | --- | --- | --- | --- | --- | --- |
| 1790 | > 25 | > 25 | 57 | 0 | 0 | COc1cc(F)ccc1C1CCN([C@@H]2COC3(C2)CN(c2nncs2)C3)CC1 [Example 5T, (S)-7-(4-(4-fluoro-2-methoxyphenyl)piperidin-1-yl)-2-(1,3,4-thiadiazol-2-yl)-5-oxa-2-azaspiro[3.4]octane] | – | – | – |
| 7240 | > 25 | > 25 | 44 | 0 | 0 | c1ccc(C2CCN([C@@H]3COC4(C3)CN(c3nnco3)C4)CC2)c(CC2CCOCC2)c1 [Example 3G, (S)-2-(1,3,4-oxadiazol-2-yl)-7-(4-(2-((tetrahydro-2H-pyran-4-yl)methyl)phenyl)piperidin-1-yl)-5-oxa-2-azaspiro[3.4]octane] | – | – | – |
| 434 | 6.64 | > 25 | 96 | 0 | 0 | Fc1ccc(OC[C@H]2COCCO2)c(C2CCN([C@@H]3COC4(C3)CN(c3nncs3)C4)CC2)c1 [Example 5K, (S)-7-(4-(2-(((R)-1,4-dioxan-2-yl)methoxy)-5-fluorophenyl)piperidin-1-yl)-2-(1,3,4-thiadiazol-2-yl)-5-oxa-2-azaspiro[3.4]octane] | – | – | – |
| 384 | > 25 | > 25 | 64 | 0 | 0 | COc1ccccc1C1CCN([C@@H]2COC3(C2)CN(c2ncco2)C3)CC1 [Example 4N, (S)-7-(4-(2-methoxyphenyl)piperidin-1-yl)-2-(oxazol-2-yl)-5-oxa-2-azaspiro[3.4]octane] | – | – | – |
| 444 | > 25 | > 25 | 60 | 0 | 0 | CC(C)(O)COc1ccc(F)cc1C1CCN([C@@H]2COC3(C2)CN(c2ncco2)C3)CC1 [Example 4K, (S)-1-(4-fluoro-2-(1-(2-(oxazol-2-yl)-5-oxa-2-azaspiro[3.4]octan-7-yl)piperidin-4-yl)phenoxy)-2-methylpropan-2-ol] | – | – | – |
| 904 | > 25 | > 25 | 52 | 0 | 0 | COc1ccccc1C1CCN([C@@H]2COC3(C2)CN(c2nncs2)C3)CC1 [Example 5R, (S)-7-(4-(2-methoxyphenyl)piperidin-1-yl)-2-(1,3,4-thiadiazol-2-yl)-5-oxa-2-azaspiro[3.4]octane] | – | – | – |
| 3890 | > 25 | > 25 | 78 | 0 | 0 | c1ccc(C2CCN([C@@H]3COC4(C3)CN(c3nnco3)C4)CC2)c(C2CCOCC2)c1 [Example 3C, (S)-2-(1,3,4-oxadiazol-2-yl)-7-(4-(2-(tetrahydro-2H-pyran-4-yl)phenyl)piperidin-1-yl)-5-oxa-2-azaspiro[3.4]octane] | – | – | – |
